Test results taken from patent publication US10626103B2, “Inhibitor of lysine specific demethylase-1” (CELGENE QUANTICEL RESEARCH, INC., priority 2014, dated 2020).
pIC50: −log10 of the molar value.

Assays:
[1] = test system: CD11b expression in THP-1 (AML) cells; assay: LSD1 CD11b cellular assay (flow cytometry); format: cell-based; conditions: THP-1 cells, 4 days
Method: To analyze LSD1 inhibitor efficacy in cells, a CDL11b flow cytometry assay was performed. LSD1 inhibition induces CD11b expression in THP-1 (AML) cells which can be measured by flow cytometry. […] LSD 1 test compounds were serially diluted in DMSO. The dilutions were added to each well accordingly to a final concentration of 0.2% DMSO. The cells were incubated at 37 degrees Celsius in 5% CO2 for 4 days. 250 μL of each well was transferred to a well in a 96 well round bottom plate. The plate was centrifuged at 1200 rpm at 4 degrees Celsius in a Beckman Coulter Alegra 6KR centrifuge for 5 minutes. The media was removed leaving the cells at the bottom of the wells. The cells were washed in 100 μL cold HBSS (Hank's Balanced Salt Solution) plus 2% BSA (Bovine Serum Albumin) solution and centrifuged at 1200 rpm at 4 degrees Celsius for 5 minutes. The wash was removed. […] The cells were centrifuged and washed two times in 100 μl HBSS plus 2% BSA. After the final spin the cells were resuspended in 100 μL HBSS plus 2% BSA containing 1 ug/mL DAPI (4′,6-diamidino-2-phenylindole). The cells were then analyzed by flow cytometry in a BD FACSAria machine. Cells were analyzed for CD11b expression. The percent of CD11b expressing cells for each inhibitor concentration was used to determine an IC50 curve for each compound analyzed.

full-length human LSD1 = full-length human LSD1 (Homo sapiens (Human), UniProt O60341); assay: In vitro enzyme inhibition assay LSD-1 (TR-FRET); format: biochemical; conditions: H3K4me1-biotin peptide
Method: This assay determines the ability of a test compound to inhibit LSD1 demethylase activity.
The enzymatic assay of LSD1 activity is based on Time Resolved-Fluorescence Resonance Energy Transfer (TR-FRET) detection.
Plates were read by EnVision Multilabel Reader in TR-FRET mode (excitation at 320 nm, emission at 615 nm and 665 nm) after 1 hour incubation at room temperature.
The ability of the compounds disclosed herein to inhibit LSD1 activity was quantified and the respective IC50 value was determined.

Row | pIC50 ([1]; Homo sapiens, 96 h) | pIC50 (full-length human LSD1) | pIC50 [1] | Compound
1 | > 7.00 | > 7.00 | – | CN(C)[C@H]1CCN(C(=O)c2nc(-c3ccc(C#N)c(F)c3)n(-c3ccc4nn(C)c(Cl)c4c3)c2Cl)C1 [Example 101, 4-[5-Chloro-1-(3-chloro-2-methylindazol-5-yl)-4-[(3S)-3-(dimethylamino)pyrrolidine-1-carbonyl]imidazol-2-yl]-2-fluorobenzonitrile]
2 | > 7.00 | > 7.00 | – | Cc1c(C(=O)N2CCC3(CNC3)C2)nc(-c2ccc(C#N)c(F)c2)n1-c1ccc2nn(C)cc2c1 [Example 91, 4-[4-(2,6-Diazaspiro[3.4]octane-6-carbonyl)-5-methyl-1-(2-methylindazol-5-yl)imidazol-2-yl]-2-fluorobenzonitrile]
3 | 6.00 to 7.00 | > 7.00 | – | CN(C)[C@H]1CCN(C(=O)c2nc(-c3ccc(C#N)c(F)c3)n(-c3ccc4nn(C)cc4c3)c2Cl)C1 [Example 100, 4-[5-Chloro-4-[(3S)-3-(dimethylamino)pyrrolidine-1-carbonyl]-1-(2-methylindazol-5-yl)imidazol-2-yl]-2-fluorobenzonitrile]
4 | > 7.00 | > 7.00 | – | CN[C@H]1CCCN(C(=O)c2nc(-c3ccc(C#N)c(F)c3)n(-c3ccc4nn(C)cc4c3)c2C)C1 [Example 97, 2-Fluoro-4-[5-methyl-4-[(3S)-3-(methylamino)piperidine-1-carbonyl]-1-(2-methylindazol-5-yl)imidazol-2-yl]benzonitrile]
5 | > 7.00 | > 7.00 | – | Cc1c(C(=O)N[C@@H]2CCCNC2)nc(-c2ccc(C#N)c(F)c2)n1-c1ccc2nn(C)c(Cl)c2c1 [Example 117, 1-(3-Chloro-2-methylindazol-5-yl)-2-(4-cyano-3-fluorophenyl)-5-methyl-N-[(3R)-piperidin-3-yl]imidazole-4-carboxamide]
6 | > 7.00 | > 7.00 | – | Cc1c(C(=O)N2CC[C@H](N(C)C)C2)nc(-c2ccc(C#N)c(F)c2)n1-c1ccc2c(cnn2C)c1 [Example 95, 4-[4-[(3S)-3-(Dimethylamino)pyrrolidine-1-carbonyl]-5-methyl-1-(1-methylindazol-5-yl)imidazol-2-yl]-2-fluorobenzonitrile]
7 | > 7.00 | > 7.00 | – | Cn1cc2cc(-n3c(-c4ccc(C#N)c(F)c4)nc(C(=O)N4CCC[C@@H](N)C4)c3F)ccc2n1 [Example 77, 4-[4-[(3R)-3-Aminopiperidine-1-carbonyl]-5-fluoro-1-(2-methylindazol-5-yl)imidazol-2-yl]-2-fluorobenzonitrile]
8 | > 7.00 | > 7.00 | – | CNCCNC(=O)c1cc(-c2ccc(C#N)c(F)c2)c(-c2ccc3nn(C)cc3c2)n1C [Example 32, [4-(4-cyano-3-fluorophenyl)-1-methyl-5-(2-methyl(2H-indazol-5-yl))pyrrol-2-yl]-N-[2-(methylamino)ethyl]carboxamide]
9 | > 7.00 | > 7.00 | – | Cc1c(C(=O)N2CC[C@H](N)C2)nc(-c2ccc(C#N)c(F)c2)n1-c1ccc(C2CC2)nc1 [Example 79, 4-[4-[(3S)-3-Aminopyrrolidine-1-carbonyl]-1-(6-cyclopropylpyridin-3-yl)-5-methylimidazol-2-yl]-2-fluorobenzonitrile]
10 | > 7.00 | > 7.00 | – | Cn1nc2ccc(-n3c(-c4ccc(C#N)c(F)c4)nc(C(=O)N4CCC[C@@H](N)C4)c3F)cc2c1Cl [Example 61, 4-[4-[(3R)-3-Aminopiperidine-1-carbonyl]-1-(3-chloro-2-methylindazol-5-yl)-5-fluoroimidazol-2-yl]-2-fluorobenzonitrile]
11 | – | > 7.00 | – | Cc1c(C(=O)N[C@@H]2CCN(C)C2)nc(-c2ccc(C#N)c(F)c2)n1-c1ccc2nn(C)cc2c1 [Example 108, 2-(4-Cyano-3-fluorophenyl)-5-methyl-1-(2-methylindazol-5-yl)-N-[(3R)-1-methylpyrrolidin-3-yl]imidazole-4-carboxamide]
12 | 6.00 to 7.00 | > 7.00 | – | COc1ccc(-n2c(-c3ccc(C#N)c(F)c3)nc(C(=O)N[C@H]3CCCNC3)c2Cl)cc1F [Example 85, 5-Chloro-2-(4-cyano-3-fluorophenyl)-1-(3-fluoro-4-methoxyphenyl)-N-[(3S)-piperidin-3-yl]imidazole-4-carboxamide]
13 | > 7.00 | > 7.00 | – | CN[C@H]1CCN(C(=O)c2nc(-c3ccc(C#N)c(F)c3)n(-c3ccc(OC)cc3)c2C)C1 [Example 69, 2-Fluoro-4-[1-(4-methoxyphenyl)-5-methyl-4-[(3S)-3-(methylamino)pyrrolidine-1-carbonyl]imidazol-2-yl]benzonitrile]
14 | – | > 7.00 | – | Cn1ncc2cc(-n3cc(C(=O)N4CCC[C@@H](N)C4)nc3-c3ccc(C#N)c(F)c3)ccc21 [Example 27, 4-[4-[(3R)-3-aminopiperidine-1-carbonyl]-1-(1-methylindazol-5-yl)imidazol-2-yl]-2-fluorobenzonitrile]
15 | > 7.00 | > 7.00 | – | Cc1ccc(-c2c(-c3ccc(C#N)cc3)cc(C(=O)N3CCC[C@@H](N)C3)n2CCO)cc1 [Example 3, 4-[5-(3-(R)-amino-piperidine-1-carbonyl)-1-(2-hydroxy-ethyl)-2-p-tolyl-1H-pyrrol-3-yl]-benzonitrile]
16 | > 7.00 | > 7.00 | – | Cc1c(C(=O)N2CC[C@H](N)C2)nc(-c2ccc(C#N)c(F)c2)n1-c1ccc2c(cnn2C)c1 [Example 24, 4-[4-[(3S)-3-aminopyrrolidine-1-carbonyl]-5-methyl-1-(1-methylindazol-5-yl)imidazol-2-yl]-2-fluorobenzonitrile]
17 | > 7.00 | > 7.00 | – | CN[C@@H]1CCCN(C(=O)c2nc(-c3ccc(C#N)c(F)c3)n(-c3ccc4nn(C)c(C)c4c3)c2C)C1 [Example 105, 4-[1-(2,3-Dimethylindazol-5-yl)-5-methyl-4-[(3R)-3-(methylamino)piperidine-1-carbonyl]imidazol-2-yl]-2-fluorobenzonitrile]
18 | 6.00 to 7.00 | – | – | COc1ccc(-c2c(-c3ccc(C#N)c(F)c3)cc(C(=O)N3CCC[C@@H](N)C3)n2CCCC(=O)O)cc1 [Example 41, 4-{5-[((3R)-3-aminopiperidyl)carbonyl]-3-(4-cyano-3-fluorophenyl)-2-(4-methoxyphenyl)pyrrolyl}butanoic acid]
19 | – | – | > 7.00 | Cn1cc2cc(-c3c(-c4ccc(C#N)c(F)c4)cc(C(=O)NCC4CCNC4)n3C)ccc2n1 (stereo in doubt) [Example 33, N-[((3S)pyrrolidin-3-yl)methyl][4-(4-cyano-3-fluorophenyl)-1-methyl-5-(2-methyl(2H-indazol-5-yl))pyrrol-2-yl]carboxamide]
20 | – | > 7.00 | – | Cn1ncc2cc(-n3cc(C(=O)N4CC[C@H](N)C4)nc3-c3ccc(C#N)c(F)c3)ccc21 [Example 28, 4-[4-[(3S)-3-aminopyrrolidine-1-carbonyl]-1-(1-methylindazol-5-yl)imidazol-2-yl]-2-fluorobenzonitrile]
21 | – | > 7.00 | – | CN1CC[C@@H](NC(=O)c2cn(-c3ccc4nn(C)c(Cl)c4c3)c(-c3ccc(C#N)c(F)c3)n2)C1 [Example 106, 1-(3-Chloro-2-methylindazol-5-yl)-2-(4-cyano-3-fluorophenyl)-N-[(3R)-1-methylpyrrolidin-3-yl]imidazole-4-carboxamide]
22 | – | > 7.00 | – | COc1ccc(-c2c(-c3ccc(C#N)c(F)c3)cc(C(=O)N3CCC[C@@H](N)C3)n2CC(N)=O)cc1 [Example 37, (R)-2-(5-(3-aminopiperidine-1-carbonyl)-3-(4-cyano-3-fluorophenyl)-2-(4-methoxyphenyl)-1H-pyrrol-1-yl)acetamide]
23 | – | > 7.00 | – | Cn1cc2cc(-n3cc(C(=O)N4CCC[C@@H](N)C4)nc3-c3ccc(C#N)c(F)c3)ccc2n1 [Example 25, 4-[4-[(3R)-3-aminopiperidine-1-carbonyl]-1-(2-methylindazol-5-yl)imidazol-2-yl]-2-fluorobenzonitrile]
24 | – | > 7.00 | – | CN1CC[C@H](NC(=O)c2cn(-c3ccc4nn(C)c(Cl)c4c3)c(-c3ccc(C#N)c(F)c3)n2)C1 [Example 107, 1-(3-Chloro-2-methylindazol-5-yl)-2-(4-cyano-3-fluorophenyl)-N-[(3S)-1-methylpyrrolidin-3-yl]imidazole-4-carboxamide]
25 | – | > 7.00 | – | Cc1c(C(=O)N[C@H]2CCN(C)C2)nc(-c2ccc(C#N)c(F)c2)n1-c1ccc2nn(C)cc2c1 [Example 109, 2-(4-Cyano-3-fluorophenyl)-5-methyl-1-(2-methylindazol-5-yl)-N-[(3S)-1-methylpyrrolidin-3-yl]imidazole-4-carboxamide]
26 | – | > 7.00 | – | Cn1cc2cc(-n3cc(C(=O)N4CC[C@H](N)C4)nc3-c3ccc(C#N)c(F)c3)ccc2n1 [Example 26, 4-[4-[(3S)-3-aminopyrrolidine-1-carbonyl]-1-(2-methylindazol-5-yl)imidazol-2-yl]-2-fluorobenzonitrile]
